Several values for one entry are separate records, joined by “and”; a condition that tells them apart may be missing. Identical values can stand only once. Toxic doses and inconclusive results are not listed.

The assay concerns BDF1 mice, intracerebral B16 melanoma, median survival T/C. Briefly: NCI In Vivo Anticancer Drug Screen. Data for tumor model B16 Melanoma (intracerebral) in B6D2F1 (BDF1) mice. The conditions noted are these: endpoint: median survival time, higher = longer survival. As to the method: The antitumor activity of compounds was measured in mice bearing transplantable tumors. Survival or tumor size were measured and the results are expressed as the measurement made in the treated group (T) divided by the measurement made in the vehicle treated control group (C). The tumor model used in this assay is B16 Melanoma (intracerebral) in B6D2F1 (BDF1) mice

The mark [1] stands for this setting: dose: 6.25 mg/kg/injection, schedule: Q01DX009 (ip), vehicle: other.
The mark [2] stands for this setting: dose: 12.5 mg/kg/injection, schedule: Q01DX009 (ip), vehicle: other.
The mark [3] stands for this setting: dose: 25.0 mg/kg/injection, schedule: Q01DX009 (ip), vehicle: other.
Where [4] appears, read: dose: 100.0 mg/kg/injection, schedule: Q01DX009 (ip), vehicle: other.

With `Nc1nncs1`, the T/C (dose: 64.0 mg/kg/injection, schedule: Q01DX005 (ip), vehicle: saline with Tween-80) was 100 % of control and 107 % of control; the T/C (dose: 128.0 mg/kg/injection, schedule: Q01DX005 (ip), vehicle: saline with Tween-80) is 119 % of control and 97 % of control; the T/C (dose: 256.0 mg/kg/injection, schedule: Q01DX005 (ip), vehicle: saline with Tween-80) was 113 % of control; the T/C (dose: 512.0 mg/kg/injection, schedule: Q01DX005 (ip), vehicle: saline with Tween-80) is 113 % of control.
Take `CN(Cc1cnc2nc(N)nc(N)c2n1)c1ccc(C(=O)N[C@@H](CCC(=O)O)C(=O)O)cc1`: the T/C (dose: 0.38 mg/kg/injection, schedule: Q01DX009 (ip), vehicle: saline) is 108 % of control; the T/C (dose: 0.5 mg/kg/injection, schedule: Q01DX009 (ip), vehicle: sodium bicarbonate) was 104 % of control; the T/C (dose: 0.75 mg/kg/injection, schedule: Q01DX009 (ip), vehicle: saline) was 100 % of control and 104 % of control; the T/C (dose: 1.0 mg/kg/injection, schedule: Q01DX009 (ip), vehicle: sodium bicarbonate) was 100 % of control; the T/C (dose: 1.5 mg/kg/injection, schedule: Q01DX009 (ip), vehicle: saline) was 95 % of control and 100 % of control; the T/C (dose: 2.0 mg/kg/injection, schedule: Q01DX009 (ip), vehicle: sodium bicarbonate) is 95 % of control. In addition, the T/C runs as follows: (dose: 3.0 mg/kg/injection, schedule: Q01DX009 (ip), vehicle: saline) 112 % of control; (dose: 4.0 mg/kg/injection, schedule: Q01DX009 (ip), vehicle: sodium bicarbonate) 100 % of control.
Turning to `CN(C)N=Nc1cccc2c1N(C)c1ccc(F)cc1S2`, the T/C was 109 % of control under setting [1]; 110 % of control under setting [2]; 108 % of control under setting [3]; 115 % of control (dose: 50.0 mg/kg/injection, schedule: Q01DX009 (ip), vehicle: other); 112 % of control under setting [4].
In the case of `c1ccc([C@H]2CN3CCSC3=N2)cc1`, the T/C is 98 % of control and 105 % of control (dose: 5.0 mg/kg/injection, schedule: Q01DX009 (ip), vehicle: saline); 120 % of control and 93 % of control (dose: 10.0 mg/kg/injection, schedule: Q01DX005 (ip), vehicle: saline); 89 % of control and 94 % of control and 98 % of control (dose: 10.0 mg/kg/injection, schedule: Q01DX009 (ip), vehicle: saline); 96 % of control and 112 % of control (dose: 20.0 mg/kg/injection, schedule: Q01DX005 (ip), vehicle: saline); 87 % of control and 89 % of control and 98 % of control (dose: 20.0 mg/kg/injection, schedule: Q01DX009 (ip), vehicle: saline); 93 % of control and 108 % of control (dose: 40.0 mg/kg/injection, schedule: Q01DX005 (ip), vehicle: saline). The T/C (dose: 40.0 mg/kg/injection, schedule: Q01DX009 (ip), vehicle: saline) is 103 % of control.
As for `O=NN(CCF)C(=O)NCCO`, the T/C (dose: 13.0 mg/kg/injection, schedule: Q01DX001 (ip), vehicle: saline) was 169 % of control; the T/C (dose: 21.6 mg/kg/injection, schedule: Q01DX001 (ip), vehicle: saline) was 209 % of control; the T/C (dose: 26.7 mg/kg/injection, schedule: Q01DX001 (ip), vehicle: Klucel (hydroxypropylcellulose) (HPC)) is 90 % of control; the T/C (dose: 36.0 mg/kg/injection, schedule: Q01DX001 (ip), vehicle: saline) is 392 % of control; the T/C (dose: 40.0 mg/kg/injection, schedule: Q01DX001 (ip), vehicle: Klucel (hydroxypropylcellulose) (HPC)) is 338 % of control; the T/C (dose: 60.0 mg/kg/injection, schedule: Q01DX001 (ip), vehicle: Klucel (hydroxypropylcellulose) (HPC)) is 220 % of control.
For the compound `CN(C)N=Nc1ccc2c(c1)N(C)c1ccc(Cl)cc1S2`, the T/C is 97 % of control under setting [1], 101 % of control under setting [2], 102 % of control under setting [3] and 112 % of control under setting [4].
Take `Cc1cn(C2CC(O)C(CO)O2)c(=O)[nH]c1=O` (stereo unspecified): the T/C was 102 % of control and 109 % of control (dose: 100.0 mg/kg/injection, schedule: Q01DX009 (ip), vehicle: saline with Tween-80); 100 % of control and 111 % of control (dose: 100.0 mg/kg/injection, schedule: Q01DX009 (ip), vehicle: saline); 105 % of control (dose: 200.0 mg/kg/injection, schedule: Q01DX009 (ip), vehicle: saline with Tween-80); 103 % of control and 110 % of control (dose: 200.0 mg/kg/injection, schedule: Q01DX009 (ip), vehicle: saline); 105 % of control (dose: 400.0 mg/kg/injection, schedule: Q01DX009 (ip), vehicle: saline with Tween-80); 94 % of control and 101 % of control (dose: 400.0 mg/kg/injection, schedule: Q01DX009 (ip), vehicle: saline). Moreover, the T/C (dose: 800.0 mg/kg/injection, schedule: Q01DX009 (ip), vehicle: saline with Tween-80) was 124 % of control and 95 % of control; the T/C (dose: 800.0 mg/kg/injection, schedule: Q01DX009 (ip), vehicle: saline) was 100 % of control and 107 % of control; the T/C (dose: 1600.0 mg/kg/injection, schedule: Q01DX009 (ip), vehicle: saline with Tween-80) is 92 % of control and 94 % of control.
With `COc1cc(NS(C)(=O)=O)ccc1Nc1c2cccc(C)c2nc2c(C)cccc12`, the T/C is 97 % of control (dose: 25.0 mg/kg/injection, schedule: Q04DX003 (ip), vehicle: Klucel (hydroxypropylcellulose) (HPC)); 104 % of control (dose: 25.0 mg/kg/injection, schedule: Q04DX003 (ip), vehicle: saline); 94 % of control (dose: 50.0 mg/kg/injection, schedule: Q04DX003 (ip), vehicle: Klucel (hydroxypropylcellulose) (HPC)); 116 % of control (dose: 50.0 mg/kg/injection, schedule: Q04DX003 (ip), vehicle: saline); 95 % of control (dose: 100.0 mg/kg/injection, schedule: Q04DX003 (ip), vehicle: saline); 104 % of control (dose: 200.0 mg/kg/injection, schedule: Q04DX003 (ip), vehicle: saline).
On to `COc1cccc2c1C(=O)c1c(O)c3c(c(O)c1C2=O)C[C@@](O)(C(=O)CO)C[C@@H]3OC1CC(N)C(O)C(C)O1` (stereo partly specified), for which the T/C runs as follows: (dose: 0.13 mg/kg/injection, schedule: Q01DX009 (ip), vehicle: saline) 91 % of control; (dose: 0.25 mg/kg/injection, schedule: Q01DX009 (ip), vehicle: saline) 108 % of control; (dose: 0.25 mg/kg/injection, schedule: Q03HX008 (ip), vehicle: saline) 100 % of control; (dose: 0.5 mg/kg/injection, schedule: Q01DX009 (ip), vehicle: saline) 112 % of control; (dose: 0.5 mg/kg/injection, schedule: Q03HX008 (ip), vehicle: saline) 100 % of control; (dose: 1.0 mg/kg/injection, schedule: Q01DX009 (ip), vehicle: saline) 104 % of control. The T/C runs as follows: (dose: 1.0 mg/kg/injection, schedule: Q03HX008 (ip), vehicle: saline) 107 % of control; (dose: 2.0 mg/kg/injection, schedule: Q01DX009 (ip), vehicle: saline) 108 % of control; (dose: 2.0 mg/kg/injection, schedule: Q03HX008 (ip), vehicle: saline) 96 % of control; (dose: 4.0 mg/kg/injection, schedule: Q01DX009 (ip), vehicle: saline) 116 % of control.
On to `CCCCCC(=O)O[C@]1(C(C)=O)CC[C@H]2[C@@H]3CCC4=CC(=O)CC[C@]4(C)[C@H]3CC[C@@]21C`, for which the T/C is, setting by setting: (dose: 8.0 mg/kg/injection, schedule: Q01DX009 (ip), vehicle: Klucel (hydroxypropylcellulose) (HPC)) 100 % of control; (dose: 16.0 mg/kg/injection, schedule: Q01DX009 (ip), vehicle: Klucel (hydroxypropylcellulose) (HPC)) 101 % of control; (dose: 32.0 mg/kg/injection, schedule: Q01DX009 (ip), vehicle: Klucel (hydroxypropylcellulose) (HPC)) 100 % of control; (dose: 64.0 mg/kg/injection, schedule: Q01DX009 (ip), vehicle: Klucel (hydroxypropylcellulose) (HPC)) 100 % of control; (dose: 128.0 mg/kg/injection, schedule: Q01DX009 (ip), vehicle: Klucel (hydroxypropylcellulose) (HPC)) 98 % of control; (dose: 256.0 mg/kg/injection, schedule: Q01DX009 (ip), vehicle: Klucel (hydroxypropylcellulose) (HPC)) 94 % of control. In addition, for the setting “dose: 512.0 mg/kg/injection, schedule: Q01DX009 (ip), vehicle: Klucel (hydroxypropylcellulose) (HPC)”, the T/C was 101 % of control.
